In patent US8829028B2, “5-HT4 receptor antagonists for the treatment of heart failure” (Serodus AS, priority 2002, dated 2014):

Tests used:
5-HT4 receptor [1] = target: T1, 5-HT4 receptor (Rattus norvegicus, UniProt Q62758); assay: Antagonism of the serotonin inotropic response by 5-HT4 antagonists in post-MI rat papillary muscle (reversal, curve shift, Schild Kb); format: cell-based
T1 construct: The papillary muscles were mounted in organ baths; from tissue; host or cells: rat posterior left ventricular papillary muscle (post-MI or aortic-banding heart failure)
T1 sequence (Q62758 whole entry): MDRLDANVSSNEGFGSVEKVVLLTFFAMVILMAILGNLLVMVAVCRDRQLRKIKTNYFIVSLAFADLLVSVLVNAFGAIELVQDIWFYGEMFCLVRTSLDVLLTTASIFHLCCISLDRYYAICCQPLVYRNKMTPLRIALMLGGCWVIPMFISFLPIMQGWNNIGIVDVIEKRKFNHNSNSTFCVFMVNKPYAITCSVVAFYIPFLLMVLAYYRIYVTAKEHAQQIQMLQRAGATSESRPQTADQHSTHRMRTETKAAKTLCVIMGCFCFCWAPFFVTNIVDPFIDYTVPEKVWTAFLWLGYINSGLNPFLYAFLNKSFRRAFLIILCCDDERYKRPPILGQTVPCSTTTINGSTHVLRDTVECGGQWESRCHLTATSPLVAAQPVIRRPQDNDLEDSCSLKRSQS
Protocol: The muscles were field stimulated with alternating polarity at 1 Hz with impulses of 5 msec duration and current about 20% above individual threshold (10-15 mA, determined in each experiment). The isometrically contracting muscles were stretched to the maximum of their length-tension curve. The force was recorded and analysed as previously described (Skomedal et al., 1997, J. Pharmacol. Exp. Ther. 280: 721-729). The muscles were allowed to equilibrate for 90 minutes. […] Averaged contraction-relaxation cycles (CRC) were calculated for different experimental periods, and these cycles were used to determine descriptive parameters like maximal development of force (dF/dt)max, time to peak force (TPF) and time to relaxation to 20% level (TR2O). Relaxation time (RT) was calculated as TR2O-TPF. (dF/dt)max was used as an index of contractility. Inotropic responses induced by agonists were expressed by increase in (dF/dt)max. RT was used as index of relaxation. Lusitropic responses were expressed as reduction in RT. Mechanical response at the end of the equilibrium period was used as the control response.
Agonist was added cumulatively or as a single bolus directly to the organ baths and was completely mixed in the solution within 2-3 seconds. […] The different agonists were added directly to the organ baths in increasing concentrations until supramaximal concentrations of agonist were obtained with respect to maximal inotropic response.
The responses for each concentration of agonist were generally calculated as percent of maximal response. The concentration-response curves constructed from papillary muscle experiment were constructed according to Ariens and Simonis (1964, supra), by estimating centiles (EC10 to EC100) for each single experiment and calculating the corresponding means. This calculation provides mean curves that express the response as fractional response or percent of maximum and display horizontal positioning and the correct mean slope of the curves. The horizontal positioning of the concentration-response curves was expressed as pEC50-values (=−log EC50). Data are expressed as mean±standard error of the mean (SEM) and the number of animals expressed as n. The significance levels of differences were calculated according to Students t-test. P<0.05 is considered statistically significant. The inhibition constants Kb were calculated from the Schild equation, based on the relative shifts of the concentration-response curves for receptor stimulation.

5-HT4 receptor [2] = target: T1, 5-HT4 receptor; assay: 5-HT4 receptor-mediated inotropic response in papillary muscle of CHF rat 6 weeks after aortic banding; format: cell-based; conditions: 1 μM GR113808 after 10 μM serotonin
Protocol: Trans-aortic constriction (aortic banding) of the ascending aorta was induced in 200 g male Wistar rats under anaesthesia, induced by 63% N2O, 32% O2 and 5% Isoflurane and maintained by 66% N2O, 33% O2 and 1-2% Isoflurane. A right-sided thoracotomi was performed through a 3-4 cm long cutaneous incision, the pericardium was opened and the ascending aorta identified and dissected free of surrounding tissue. A ligature was knit around the ascending aorta and a metal probe with diameter 0.9 mm. The metal probe was then removed. The result was a constriction of the ascending aorta with internal diameter about 0.9 mm. The thorax was then closed with 3-0 silk sutures and the skin closed with Dexon 1 sutures. […]
Papillary muscle was extracted from a CHF rat 6 weeks after aortic banding as described above. osterior left ventricular papillary muscle was prepared, mounted in organ bath, equilibrated and field stimulated at 1 Hz (Sjaastad et al. 2003 supra), and the contraction-relaxation cycles (CRCs) were recorded and analysed as previously described (Skomedal et al. 1997, J. Pharmacol Exp Ther 280: 721-729) (Sjaastad et al., 2003, supra) with respect to maximal developed force (Fmax), maximal development of force (dF/dt)max, time to peak force (TPF), time to relaxation to 20% level (TR20) and relaxation time (RT=TR20-TPF).

5-HT4 receptor [3] = target: T2, 5-HT4 receptor (Homo sapiens, UniProt Q13639); conditions: Gale et al., 1994; cited from earlier work
T2 sequence (Q13639 whole entry): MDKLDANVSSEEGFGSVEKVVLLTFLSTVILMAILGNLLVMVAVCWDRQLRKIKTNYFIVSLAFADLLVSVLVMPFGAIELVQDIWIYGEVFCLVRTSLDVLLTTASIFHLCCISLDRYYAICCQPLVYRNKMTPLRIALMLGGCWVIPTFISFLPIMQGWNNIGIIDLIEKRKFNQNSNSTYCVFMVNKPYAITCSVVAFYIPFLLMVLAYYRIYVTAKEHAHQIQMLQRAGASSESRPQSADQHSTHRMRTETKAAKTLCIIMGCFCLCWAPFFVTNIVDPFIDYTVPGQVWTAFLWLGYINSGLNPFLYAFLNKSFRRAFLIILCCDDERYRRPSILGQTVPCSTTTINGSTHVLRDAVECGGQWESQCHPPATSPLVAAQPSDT

5-HT4 receptor [4] = target: T2, 5-HT4 receptor; assay: Inotropic response in trabecular muscle from explanted post-infarct human heart; format: cell-based; design: Trabecular muscles were prepared, mounted in organ baths; from tissue; host or cells: trabecular muscle from explanted human hearts (post-infarct; dilated cardiomyopathy); conditions: 1 μM GR113808 after 10 μM serotonin
Protocol: The heart was explanted from a patient who had survived a small myocardial infarction and died in hospital from subarachnoidal haemorrhage. Trabecular muscles were prepared, mounted in organ baths, equilibrated and field stimulated at 1 Hz (Skomedal et al., 1997, supra) and the contraction-relaxation cycles (CRCs) were recorded and analysed as previously described (Skomedal et al., 1997, supra) with respect to maximal developed force (Fmax), maximal development of force (dF/dt)max, time to peak force (TPF), time to relaxation to 20% level (TR20) and relaxation time (RT=TR20-TPF).

5-HT4 receptor [5] = target: T2, 5-HT4 receptor; assay: Inotropic response in trabecular muscle from explanted human heart with dilated cardiomyopathy (IBMX present); format: cell-based; design: Trabecular muscles were prepared, mounted in organ baths; from tissue; host or cells: trabecular muscle from explanted human hearts (post-infarct; dilated cardiomyopathy); conditions: 1 μM GR113808 after 10 μM serotonin; IBMX 35 μM

With `Cn1cc(C(=O)OCC2CCN(CCNS(C)(=O)=O)CC2)c2ccccc21` [GR113808, {1-[2-(methyl-sulphonylamino)ethyl]-4-piperidinyl}methyl 1-methyl-1H-indole-3-carboxylate] the Kb (5-HT4 receptor [1]) was 0.5 nM, the “reversal of the inotropic response evoked by 10 μmol/l serotonin” value (5-HT4 receptor [1]) was “completely reversed” and the “reversal of the serotonin-induced shortening of the contraction-relaxation cycles” value (5-HT4 receptor [1]) was “not completely reversed”. For the same molecule, the “reversal of the positive inotropic response to serotonin” value (shortened to “reversal … to serotonin”) (5-HT4 receptor [2]) was “reversed”, the pKi (5-HT4 receptor [3]) was 9.2-9.7 and the “reversal … to serotonin” value (5-HT4 receptor [4]) was “reversed”. For the same molecule, the “reversal … to serotonin” value (5-HT4 receptor [5]) was “reversed”.
